In ChEMBL document CHEMBL3603736, “3-Substituted pyrazoles and 4-substituted triazoles as inhibitors of human 15-lipoxygenase-1” (Bioorg Med Chem Lett, 2015):
Values after ≈ are worked out from the molar mass of the structure shown. Values belong to the compound of their own block, whether it stands above or below them. Active and inactive are the calls of the source. The calls are words filed in the database; no cut-off is given here.

Legend:
[1] = target: T1, Polyunsaturated fatty acid lipoxygenase ALOX15 (Homo sapiens, UniProt P16050); conditions: l1236
T1 sequence (P16050 whole entry): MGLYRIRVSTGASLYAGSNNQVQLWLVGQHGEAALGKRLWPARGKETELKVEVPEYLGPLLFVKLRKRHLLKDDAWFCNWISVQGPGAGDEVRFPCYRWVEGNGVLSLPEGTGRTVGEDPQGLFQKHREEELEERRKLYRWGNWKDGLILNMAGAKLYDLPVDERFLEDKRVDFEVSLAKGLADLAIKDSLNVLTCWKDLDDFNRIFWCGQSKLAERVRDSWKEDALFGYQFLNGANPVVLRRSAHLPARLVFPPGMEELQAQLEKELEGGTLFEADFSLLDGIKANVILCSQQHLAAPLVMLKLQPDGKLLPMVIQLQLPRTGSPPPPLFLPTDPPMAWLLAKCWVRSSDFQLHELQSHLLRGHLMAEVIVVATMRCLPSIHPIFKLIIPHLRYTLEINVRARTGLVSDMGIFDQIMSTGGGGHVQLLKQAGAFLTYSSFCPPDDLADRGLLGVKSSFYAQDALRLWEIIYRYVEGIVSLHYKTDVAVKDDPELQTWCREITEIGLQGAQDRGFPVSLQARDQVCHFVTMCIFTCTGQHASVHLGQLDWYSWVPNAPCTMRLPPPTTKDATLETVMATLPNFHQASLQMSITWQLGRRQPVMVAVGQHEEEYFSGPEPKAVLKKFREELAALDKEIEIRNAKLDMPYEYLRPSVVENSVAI
Description: (§5) Inhibition of 15-LOX-1 in human L1236 cells assessed as reduction in conversion of arachidonic acid to 15-HETE pre-incubated 5 min before arachidonic acid substrate addition by HPLC-UV spectroscopy

[2] = target: T1, Polyunsaturated fatty acid lipoxygenase ALOX15
Description: as §5

[3] = target: T1, Polyunsaturated fatty acid lipoxygenase ALOX15; remark: listed apart in the source
Description: Inhibition of human 15-LOX-1 expressed in Sf9 cells assessed as reduction in conversion of arachidonic acid to 15-HETE pre-incubated 5 min before arachidonic acid substrate addition by HPLC-UV spectroscopy

Cytochrome P450 2C9 [4] = target: T2, Cytochrome P450 2C9 (Homo sapiens, UniProt P11712); assay: Inhibition of human CYP2C9; assay type: ADME
T2 sequence (P11712 whole entry): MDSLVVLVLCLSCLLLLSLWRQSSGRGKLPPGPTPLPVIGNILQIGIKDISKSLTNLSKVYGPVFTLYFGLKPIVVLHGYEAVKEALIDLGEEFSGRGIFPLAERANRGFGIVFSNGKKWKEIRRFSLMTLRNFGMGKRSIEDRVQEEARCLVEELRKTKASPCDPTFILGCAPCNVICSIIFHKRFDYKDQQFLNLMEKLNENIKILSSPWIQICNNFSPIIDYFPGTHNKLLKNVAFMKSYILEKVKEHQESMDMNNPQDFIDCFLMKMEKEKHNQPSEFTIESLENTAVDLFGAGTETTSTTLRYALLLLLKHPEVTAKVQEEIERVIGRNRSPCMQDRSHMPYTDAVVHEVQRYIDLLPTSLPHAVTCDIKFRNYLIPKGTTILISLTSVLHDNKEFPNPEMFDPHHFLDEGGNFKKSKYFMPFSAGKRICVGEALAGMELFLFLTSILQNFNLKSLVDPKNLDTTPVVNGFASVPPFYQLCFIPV

[5] = target: Voltage-gated inwardly rectifying potassium channel KCNH2 (Homo sapiens, UniProt Q12809); assay: Inhibition of human ERG
Chain of Voltage-gated inwardly rectifying potassium channel KCNH2 (Q12809 whole entry): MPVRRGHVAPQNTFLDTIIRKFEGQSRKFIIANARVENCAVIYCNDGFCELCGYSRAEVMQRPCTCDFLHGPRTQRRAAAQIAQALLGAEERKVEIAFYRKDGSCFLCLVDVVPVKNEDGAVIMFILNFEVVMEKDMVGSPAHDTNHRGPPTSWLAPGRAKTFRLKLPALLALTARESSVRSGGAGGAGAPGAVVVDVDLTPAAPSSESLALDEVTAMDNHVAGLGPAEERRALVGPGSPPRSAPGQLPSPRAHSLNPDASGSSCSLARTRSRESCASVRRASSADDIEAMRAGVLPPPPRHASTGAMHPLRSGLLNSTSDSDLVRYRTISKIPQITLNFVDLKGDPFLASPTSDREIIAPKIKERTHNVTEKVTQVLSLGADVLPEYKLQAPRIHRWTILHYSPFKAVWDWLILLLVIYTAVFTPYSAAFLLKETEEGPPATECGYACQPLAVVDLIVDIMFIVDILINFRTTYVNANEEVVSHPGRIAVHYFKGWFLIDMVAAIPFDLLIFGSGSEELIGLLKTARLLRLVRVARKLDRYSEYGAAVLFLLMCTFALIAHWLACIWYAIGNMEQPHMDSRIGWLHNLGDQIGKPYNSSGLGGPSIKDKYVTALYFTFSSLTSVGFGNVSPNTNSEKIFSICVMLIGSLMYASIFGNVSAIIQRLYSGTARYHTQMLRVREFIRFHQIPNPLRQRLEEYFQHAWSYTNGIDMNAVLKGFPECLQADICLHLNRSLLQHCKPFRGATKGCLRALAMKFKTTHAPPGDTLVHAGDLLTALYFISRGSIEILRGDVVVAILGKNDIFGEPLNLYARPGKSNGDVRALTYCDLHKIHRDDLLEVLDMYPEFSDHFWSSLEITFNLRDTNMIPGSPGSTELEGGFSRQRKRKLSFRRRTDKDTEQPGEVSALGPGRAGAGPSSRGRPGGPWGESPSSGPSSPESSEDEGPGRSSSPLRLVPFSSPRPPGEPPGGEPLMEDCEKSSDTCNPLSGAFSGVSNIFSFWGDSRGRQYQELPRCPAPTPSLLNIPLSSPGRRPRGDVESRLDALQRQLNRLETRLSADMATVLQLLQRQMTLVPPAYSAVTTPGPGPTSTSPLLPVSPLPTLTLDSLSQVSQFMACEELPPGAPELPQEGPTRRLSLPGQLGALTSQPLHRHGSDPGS

[6] = target: T3, Prostaglandin G/H synthase 1 (Ovis aries) (UniProt P05979); assay: Inhibition of ovine COX1 assessed as reduction in PGH2-derived PGF2alpha production at 10 uM by enzyme immunoassay
T3 sequence (whole entry): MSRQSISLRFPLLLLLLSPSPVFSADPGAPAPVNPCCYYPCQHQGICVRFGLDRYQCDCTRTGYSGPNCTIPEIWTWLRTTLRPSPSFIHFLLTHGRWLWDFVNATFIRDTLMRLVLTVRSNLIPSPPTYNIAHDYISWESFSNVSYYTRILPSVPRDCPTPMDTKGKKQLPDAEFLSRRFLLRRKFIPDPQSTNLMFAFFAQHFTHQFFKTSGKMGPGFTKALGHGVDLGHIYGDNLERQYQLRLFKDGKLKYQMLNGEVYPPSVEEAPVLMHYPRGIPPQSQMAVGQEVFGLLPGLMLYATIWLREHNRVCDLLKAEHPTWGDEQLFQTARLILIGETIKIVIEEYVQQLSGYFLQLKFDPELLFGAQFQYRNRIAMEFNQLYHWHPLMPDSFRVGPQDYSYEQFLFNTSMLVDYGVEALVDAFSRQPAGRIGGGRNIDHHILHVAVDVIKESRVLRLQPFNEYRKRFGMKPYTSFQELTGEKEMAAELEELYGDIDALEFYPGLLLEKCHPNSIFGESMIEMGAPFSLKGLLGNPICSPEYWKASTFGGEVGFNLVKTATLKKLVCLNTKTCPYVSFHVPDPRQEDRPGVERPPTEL

[7] = Intrinsic clearance in human microsomes; assay type: ADME, Microsome
[8] = target: T4, Prostaglandin G/H synthase 2 (Homo sapiens) (UniProt P35354); assay: Inhibition of human recombinant COX2 assessed as reduction in PGH2-derived PGF2alpha production at 10 uM by enzyme immunoassay
T4 sequence (whole entry): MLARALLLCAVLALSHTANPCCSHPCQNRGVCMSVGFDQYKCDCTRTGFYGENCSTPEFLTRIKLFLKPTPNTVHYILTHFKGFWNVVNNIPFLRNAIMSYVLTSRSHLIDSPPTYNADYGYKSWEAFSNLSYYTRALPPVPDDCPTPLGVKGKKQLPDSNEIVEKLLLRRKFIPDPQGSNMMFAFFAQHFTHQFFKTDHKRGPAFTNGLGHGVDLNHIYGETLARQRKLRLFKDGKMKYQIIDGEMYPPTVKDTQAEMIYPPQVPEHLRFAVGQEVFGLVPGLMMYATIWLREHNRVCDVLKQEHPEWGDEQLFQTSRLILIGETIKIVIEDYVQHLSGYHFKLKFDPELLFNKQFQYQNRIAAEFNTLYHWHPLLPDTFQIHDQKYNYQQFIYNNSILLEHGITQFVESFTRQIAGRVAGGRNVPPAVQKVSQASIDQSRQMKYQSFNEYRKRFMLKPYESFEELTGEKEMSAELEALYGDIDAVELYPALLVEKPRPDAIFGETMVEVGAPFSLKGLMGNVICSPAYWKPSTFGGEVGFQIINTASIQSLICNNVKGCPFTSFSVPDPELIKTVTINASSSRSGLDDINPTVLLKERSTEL

[9] = Aqueous solubility in pH 7.4 buffer; assay type: physicochemical
[10] = Aqueous solubility in pH 10 buffer; assay type: physicochemical
[11] = Protein binding in plasma (unknown origin); assay type: ADME, cell-free; conditions: read-out: PPB (converted)
Caco-2 = assay: Permeability in human Caco2 cells; assay type: ADME, cell-based
Cytochrome P450 2C19 [12] = target: T5, Cytochrome P450 2C19 (Homo sapiens, UniProt P33261); assay: Inhibition of human CYP2C19; assay type: ADME
T5 sequence (P33261 whole entry): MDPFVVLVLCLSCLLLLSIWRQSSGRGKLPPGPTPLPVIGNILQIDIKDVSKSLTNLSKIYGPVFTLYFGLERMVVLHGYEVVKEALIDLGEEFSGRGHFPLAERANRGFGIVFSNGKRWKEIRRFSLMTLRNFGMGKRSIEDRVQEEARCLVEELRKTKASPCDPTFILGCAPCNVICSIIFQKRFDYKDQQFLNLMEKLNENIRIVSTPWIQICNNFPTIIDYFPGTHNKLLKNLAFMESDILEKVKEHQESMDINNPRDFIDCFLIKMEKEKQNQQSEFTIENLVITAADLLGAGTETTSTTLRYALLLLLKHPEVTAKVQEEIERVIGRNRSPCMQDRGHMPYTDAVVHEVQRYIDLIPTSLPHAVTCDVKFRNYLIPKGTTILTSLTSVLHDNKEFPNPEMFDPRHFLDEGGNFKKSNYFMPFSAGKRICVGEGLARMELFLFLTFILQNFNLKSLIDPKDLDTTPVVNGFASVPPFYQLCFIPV

[13] = Aqueous solubility in pH 2.0 buffer; assay type: physicochemical
Cytochrome P450 1A2 [14] = target: T6, Cytochrome P450 1A2 (Homo sapiens, UniProt P05177); assay: (§1) Inhibition of human CYP1A2 at 10 uM; assay type: ADME; conditions: 10 µM
T6 sequence (P05177 whole entry): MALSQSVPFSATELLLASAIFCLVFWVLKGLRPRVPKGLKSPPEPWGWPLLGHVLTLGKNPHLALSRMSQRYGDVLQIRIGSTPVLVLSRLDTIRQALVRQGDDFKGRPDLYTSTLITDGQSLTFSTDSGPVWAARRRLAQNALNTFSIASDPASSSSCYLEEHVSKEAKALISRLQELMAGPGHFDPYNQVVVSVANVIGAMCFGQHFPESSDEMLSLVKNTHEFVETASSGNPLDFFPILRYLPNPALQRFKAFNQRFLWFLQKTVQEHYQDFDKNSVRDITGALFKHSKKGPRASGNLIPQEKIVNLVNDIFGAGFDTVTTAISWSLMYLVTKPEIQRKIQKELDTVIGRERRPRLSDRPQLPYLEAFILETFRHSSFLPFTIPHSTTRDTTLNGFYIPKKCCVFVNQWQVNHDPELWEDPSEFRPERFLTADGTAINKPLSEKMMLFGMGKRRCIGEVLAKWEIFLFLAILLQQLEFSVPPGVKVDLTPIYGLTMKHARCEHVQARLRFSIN

Escherichia coli = assay: Genotoxicity in Escherichia coli by SOS/umu test; assay type: toxicity, organism-based
Cytochrome P450 2C19 [15] = target: T5, Cytochrome P450 2C19; assay: (§2) Inhibition of human CYP2C19 at 10 uM; assay type: ADME; conditions: 10 µM
Cytochrome P450 2C9 [16] = target: T2, Cytochrome P450 2C9; assay: (§3) Inhibition of human CYP2C9 at 10 uM; assay type: ADME; conditions: 10 µM
[17] = Half life in human microsomes; assay type: ADME, Microsome
Cytochrome P450 3A4 [18] = target: T7, Cytochrome P450 3A4 (Homo sapiens, UniProt P08684); assay: Inhibition of human CYP3A4; assay type: ADME
T7 sequence (P08684 whole entry): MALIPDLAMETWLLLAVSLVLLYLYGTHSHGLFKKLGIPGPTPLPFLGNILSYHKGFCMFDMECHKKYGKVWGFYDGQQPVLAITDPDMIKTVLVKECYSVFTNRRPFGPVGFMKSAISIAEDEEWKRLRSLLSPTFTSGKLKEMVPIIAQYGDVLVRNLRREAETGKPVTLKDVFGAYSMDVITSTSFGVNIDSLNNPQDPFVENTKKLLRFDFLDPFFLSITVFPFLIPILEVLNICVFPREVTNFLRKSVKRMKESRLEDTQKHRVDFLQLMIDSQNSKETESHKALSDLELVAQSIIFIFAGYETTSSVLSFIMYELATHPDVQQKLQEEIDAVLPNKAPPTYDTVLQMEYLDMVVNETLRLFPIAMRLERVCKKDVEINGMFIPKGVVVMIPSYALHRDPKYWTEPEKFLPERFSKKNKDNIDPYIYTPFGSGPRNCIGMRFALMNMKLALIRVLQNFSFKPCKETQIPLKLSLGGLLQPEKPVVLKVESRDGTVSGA

Cytochrome P450 2C8 [19] = target: T8, Cytochrome P450 2C8 (Homo sapiens, UniProt P10632); assay: Inhibition of human CYP2C8 at 10 uM; assay type: ADME
T8 sequence (P10632 whole entry): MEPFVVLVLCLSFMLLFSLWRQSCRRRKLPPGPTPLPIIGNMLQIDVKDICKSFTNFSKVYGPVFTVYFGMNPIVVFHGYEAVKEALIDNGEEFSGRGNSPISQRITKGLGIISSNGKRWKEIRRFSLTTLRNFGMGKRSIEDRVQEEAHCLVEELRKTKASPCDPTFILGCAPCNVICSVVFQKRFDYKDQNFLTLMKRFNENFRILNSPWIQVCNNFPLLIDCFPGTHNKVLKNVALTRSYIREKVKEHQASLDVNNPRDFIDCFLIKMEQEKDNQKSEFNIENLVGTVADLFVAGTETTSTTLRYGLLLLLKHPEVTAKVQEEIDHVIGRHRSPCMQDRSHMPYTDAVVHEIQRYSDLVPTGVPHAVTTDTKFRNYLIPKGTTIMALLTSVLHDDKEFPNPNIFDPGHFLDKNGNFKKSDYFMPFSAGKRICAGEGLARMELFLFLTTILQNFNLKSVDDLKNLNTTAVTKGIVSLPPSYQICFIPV

Cytochrome P450 2D6 = Cytochrome P450 2D6 (Homo sapiens, UniProt P10635); assay: Inhibition of human CYP2D6; assay type: ADME
Cytochrome P450 2C8 [20] = target: T8, Cytochrome P450 2C8; assay: Inhibition of human CYP2C8; assay type: ADME
[21] = target: Polyunsaturated fatty acid 5-lipoxygenase (Homo sapiens) (UniProt P09917); assay: Inhibition of 5-LOX in calcium ionophore and arachidonic acid-stimulated purified human granulocytes assessed as reduction in LTB4 formation at 10 uM by HPLC-UV spectroscopy
Chain of Polyunsaturated fatty acid 5-lipoxygenase (Homo sapiens) (P09917 whole entry): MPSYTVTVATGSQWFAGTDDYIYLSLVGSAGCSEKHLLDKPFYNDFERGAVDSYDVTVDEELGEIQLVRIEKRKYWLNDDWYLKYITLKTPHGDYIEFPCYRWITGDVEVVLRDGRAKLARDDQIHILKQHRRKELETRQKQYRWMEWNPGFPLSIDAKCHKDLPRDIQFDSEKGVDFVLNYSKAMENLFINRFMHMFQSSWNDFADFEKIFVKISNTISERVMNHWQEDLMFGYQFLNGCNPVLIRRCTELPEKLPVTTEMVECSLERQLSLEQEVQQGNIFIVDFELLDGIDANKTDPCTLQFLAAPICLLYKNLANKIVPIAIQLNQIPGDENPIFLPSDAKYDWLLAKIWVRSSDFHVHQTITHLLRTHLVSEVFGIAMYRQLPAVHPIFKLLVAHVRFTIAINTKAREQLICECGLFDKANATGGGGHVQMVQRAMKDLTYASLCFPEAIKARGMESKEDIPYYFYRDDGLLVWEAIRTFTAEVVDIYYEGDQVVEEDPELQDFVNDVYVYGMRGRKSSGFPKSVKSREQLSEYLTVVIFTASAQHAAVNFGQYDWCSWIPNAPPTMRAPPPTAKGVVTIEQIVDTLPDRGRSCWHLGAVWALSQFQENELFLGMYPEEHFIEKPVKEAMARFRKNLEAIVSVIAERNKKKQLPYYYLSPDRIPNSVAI

CYP2E1 = CYP2E1 (Homo sapiens, UniProt P05181); assay: Inhibition of human CYP2E1 at 10 uM; assay type: ADME
[22] = target: Arachidonate 12-lipoxygenase (Rattus norvegicus, UniProt Q02759); assay: (§4) Inhibition of rat 15-LOX-1 expressed in Sf9 cells assessed as reduction in conversion of arachidonic acid to 15-HETE pre-incubated 5 min before arachidonic acid substrate addition by HPLC-UV spectroscopy
[23] = target: Arachidonate 12-lipoxygenase (Rattus norvegicus) (UniProt Q02759); assay: as §4
CYP2B6 = CYP2B6 (Homo sapiens, UniProt P20813); assay: Inhibition of human CYP2B6 at 10 uM; assay type: ADME
[24] = target: Polyunsaturated fatty acid lipoxygenase ALOX15B (Homo sapiens, UniProt O15296); assay: Inhibition of human 15-LOX-2 expressed in Sf9 cells assessed as reduction in conversion of arachidonic acid to 15-HETE pre-incubated 5 min before arachidonic acid substrate addition by HPLC-UV spectroscopy
[25] = Inhibition of dog 15-LOX-1 expressed in Sf9 cells assessed as reduction in conversion of arachidonic acid to 15-HETE pre-incubated 5 min before arachidonic acid substrate addition by HPLC-UV spectroscopy; set-up: species or system Canis lupus familiaris
Cytochrome P450 1A2 [26] = target: T6, Cytochrome P450 1A2; assay: Inhibition of human CYP1A2; assay type: ADME
[27] = target: Arachidonate 12-lipoxygenase (Sus scrofa, UniProt P16469); assay: Inhibition of pig 15-LOX-1 expressed in Sf9 cells assessed as reduction in conversion of arachidonic acid to 15-HETE pre-incubated 5 min before arachidonic acid substrate addition by HPLC-UV spectroscopy
[28] = target: Polyunsaturated fatty acid lipoxygenase ALOX12 (Homo sapiens) (UniProt P18054); assay: Inhibition of human platelet 12-LOX assessed as reduction in conversion of arachidonic acid to […] at 10 uM pre-incubated 5 min before arachidonic acid substrate addition by HPLC-UV spectroscopy
Chain of Polyunsaturated fatty acid lipoxygenase ALOX12 (Homo sapiens) (P18054 whole entry): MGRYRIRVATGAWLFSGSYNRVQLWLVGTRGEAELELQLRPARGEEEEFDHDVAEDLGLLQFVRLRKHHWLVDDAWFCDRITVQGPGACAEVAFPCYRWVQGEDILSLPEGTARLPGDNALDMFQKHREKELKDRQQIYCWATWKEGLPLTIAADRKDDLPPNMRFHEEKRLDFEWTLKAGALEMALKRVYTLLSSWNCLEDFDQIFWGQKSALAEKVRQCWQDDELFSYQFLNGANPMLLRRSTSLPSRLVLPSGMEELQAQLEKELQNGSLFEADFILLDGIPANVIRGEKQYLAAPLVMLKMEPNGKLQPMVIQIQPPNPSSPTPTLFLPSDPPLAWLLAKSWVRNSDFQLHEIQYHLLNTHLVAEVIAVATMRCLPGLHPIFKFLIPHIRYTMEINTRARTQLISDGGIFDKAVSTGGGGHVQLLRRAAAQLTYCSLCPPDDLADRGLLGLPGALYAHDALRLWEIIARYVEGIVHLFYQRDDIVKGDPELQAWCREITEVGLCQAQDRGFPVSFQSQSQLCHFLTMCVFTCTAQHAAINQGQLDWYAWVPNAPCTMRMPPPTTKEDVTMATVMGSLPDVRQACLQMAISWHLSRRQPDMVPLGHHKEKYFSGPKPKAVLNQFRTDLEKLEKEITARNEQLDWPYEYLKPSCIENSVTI

Cytochrome P450 3A4 [29] = target: T7, Cytochrome P450 3A4; assay: Inhibition of human CYP3A4 at 10 uM; assay type: ADME
CYP2D6 = CYP2D6 (Homo sapiens, UniProt P10635); assay: Inhibition of human CYP2D6 at 10 uM; assay type: ADME
CYP1A2 = CYP1A2 (Homo sapiens, UniProt P05177); assay: as §1; assay type: ADME
Chain of CYP1A2 (P05177 whole entry): as the sequence (P05177 whole entry) above

CYP2C19 = CYP2C19 (Homo sapiens, UniProt P33261); assay: as §2; assay type: ADME
CYP2C9 = CYP2C9 (Homo sapiens, UniProt P11712); assay: as §3; assay type: ADME

Structure (SMILES): O=C(Nc1ccncc1)c1cc[nH]n1
IC50 [1]: Not Active

Structure (SMILES): O=C(Nc1ccccn1)c1cc[nH]n1
IC50 [2]: 3410 nM
IC50 [3]: 1210 nM

Structure (SMILES): O=C(Nc1ccc(F)cc1)c1cc[nH]n1
IC50 [2]: 270 nM

Structure (SMILES): Cc1c(C(=O)Nc2ccc(F)cc2Cl)n[nH]c1[Si](C)(C)C
IC50 [2]: 1330 nM
IC50 [3]: 672 nM

Structure (SMILES): O=C(Nc1ccc2ccccc2n1)c1cc[nH]n1
IC50 (Cytochrome P450 2C9 [4]): Not Active
inhibition (INH) [5]: Not Active
inhibition [6]: 9%
microsomal CLint [7]: 7 µL/min/mg
inhibition [8]: inactive
solubility [9]: 10.1 µg/mL (≈ 42.4 µM)
solubility [10]: 10.1 µg/mL (≈ 42.4 µM)
fraction unbound [11]: 0.072
permeability (Caco-2): permeable
IC50 (Cytochrome P450 2C19 [12]): Not Active
solubility [13]: 573 µg/mL (≈ 2410 µM)
inhibition (INH) (Cytochrome P450 1A2 [14]): 75%
Activity (Escherichia coli): Non-toxic
inhibition (INH) (Cytochrome P450 2C19 [15]): Not Active
IC50 [2]: 92 nM
inhibition (INH) (Cytochrome P450 2C9 [16]): Not Active
half-life [17]: > 1.67 h
IC50 [3]: 180 nM

Structure (SMILES): O=C(Nc1ccc(F)cn1)c1cc[nH]n1
IC50 (Cytochrome P450 3A4 [18]): Not Active
inhibition (INH) [5]: Not Active
inhibition [6]: inactive
microsomal CLint [7]: 17 µL/min/mg
inhibition [8]: inactive
solubility [9]: 3.4 µg/mL (≈ 16.5 µM)
inhibition [21]: < 50%
fraction unbound [11]: 0.071
permeability (Caco-2): permeable
inhibition (INH) (Cytochrome P450 3A4 [29]): Not Active
inhibition at 10 µM (CYP2D6): 9%
inhibition at 10 µM (CYP1A2): 45%
Activity (Escherichia coli): Non-toxic
inhibition at 10 µM (CYP2C19): 6%
inhibition at 10 µM (CYP2C9): 26%
half-life [17]: 0.6 h
inhibition [28]: < 50%

Now from value to compound, other results behind:

IC50 [2]: 616 nM
IC50 [3]: 5900 nM
Structure (SMILES): O=C(Nc1ccc(F)cc1Cl)c1n[nH]cc1[N+](=O)[O-]

IC50 [1]: Not Active
Structure (SMILES): CS(=O)(=O)Nc1cc(C(=O)Nc2ccc(F)cc2Cl)n[nH]1

IC50 (Cytochrome P450 3A4 [18]; read-out: IC50): 58100 nM
IC50 (Cytochrome P450 2C9 [4]; read-out: IC50): 500 nM
inhibition (INH) (Cytochrome P450 2C8 [19]): Not Active
inhibition [6]: 4%
IC50 (Cytochrome P450 2D6): > 100000 nM
microsomal CLint [7]: < 1 µL/min/mg
inhibition [8]: 10%
solubility [9]: 83.6 µg/mL (≈ 325 µM)
IC50 (Cytochrome P450 2C8 [20]): Not Active
solubility [10]: > 287 µg/mL
inhibition [21]: < 50%
inhibition at 10 µM (CYP2E1): 10%
IC50 [22]: 24000 nM
Imax [23]: 79%
fraction unbound [11]: < 0.01
permeability (Caco-2): permeable
IC50 (Cytochrome P450 2C19 [12]; read-out: IC50): 1400 nM
inhibition at 10 µM (CYP2B6): 93%
IC50 [24]: Not Active
solubility [13]: 24.3 µg/mL (≈ 94.5 µM)
IC50 [25]: 2400 nM
IC50 (Cytochrome P450 1A2 [26]): 21600 nM
IC50 [27]: 78 nM
half-life [17]: > 1.67 h
inhibition [28]: 42%
Structure (SMILES): O=C(Nc1ccc(Cl)cc1Cl)c1cn[nH]n1
inhibition (INH) [5]: Not Active
Activity (Escherichia coli): Non-toxic

IC50 [2]: 334 nM
IC50 [3]: 5980 nM
Structure (SMILES): Nc1cc(C(=O)Nc2ccc(F)cc2Cl)n[nH]1

IC50 [2]: 3110 nM
IC50 [3]: 3970 nM
Structure (SMILES): O=C(Nc1ccc(F)cn1)c1cn[nH]n1
